Experimental findings from patent US20100210697A1, “PHARMACEUTICAL COMPOSITION FOR TREATMENT OF CATARACT” (R-TECH UENO, LTD., priority 2007, published 2010) are described below.

One assay concerns STZ induced diabetic rat. Put plainly: Cataract onset in STZ induced diabetic rats, repeated instillation into both eyes. The format is in vivo, Rats (Crj: Wistar). The conditions noted are these: for number of onset eyes / onset of cataract (conclusion in words): Day 46; for number of onset eyes / onset rate (Day 46): instilled 10 μL per eye, 3 times a day, test substance 1 0.01 wt %, test substance 2 2 wt %; for number of onset eyes: onset eyes/total eyes; for onset of cataract (conclusion in words): STZ induced diabetic rats, instillation; for onset rate (Day 46): saline pathology group 100%. Here is the method:
Rats (Crj: Wistar, male, 5-week-old) were purchased, grouped after acclimation for 6 days, and fasted for 20 hr.
After the fasting, Streptosotocin (hereinafter STZ, 50 mg/kg (2 mL/kg)) was administered to the tail vein.
After 24 hr from the STZ administration, the blood glucose level was measured, and the rats with blood glucose level of not less than 250 mg/dL were considered as STZ induced diabetic rat (measurement tool: ACCU-CHEK Aviva, Roche Diagnostics K.K.) (group 2-group 4).
From the next day of the blood glucose level measurement, saline, test substance 1 and test substance 2 were repetitively instilled to groups 2-4 into both eyes (10 μL for each eye) 3 times a day (9:00, 13:00, 17:00). The cataract suppression rate of the test substance at the time point when the onset of the pathology model group 2 reached 100% (Day 46) was determined. Saline was repetitively instilled in the same manner to the group free of streptosotocin administration (group 1).
In addition, the day when the nuclear part of the crystalline lens became obviously opaque was taken as the cataract onset day.
cataract onset rate: (number of cataract onset eyes/total number of eyes ×100)

The test system of assay [1] is rats given powder feed with 30% of galactose. Put plainly: Cataract onset in rats fed 30% galactose feed, repeated oral administration. The format is in vivo, Rats (Crj: Wistar). The text has this:
Rats (Crj: Wistar, male, 3-week-old) were purchased and, from the next day (Day 0), a mixture of a powder feed (CRF-1, Oriental Yeast Co., ltd.) and 30% of galactose (special grade, Wako Pure Chemical Industries, Ltd., Lot# 075-00035) was freely given. From Day 0, test substance 1 was repetitively administered orally.
dissolution liquid: 0.5% methylcellulose solution test substance 1: N-{4-[2-(4-hydrazinocarbonylmethylphenyl)ethyl]-1,3-thiazol-2-yl}acetamide (compound described in Production Example)

With `CC(=O)Nc1nc(CCc2ccc(CC(=O)NN)cc2)cs1` [test substance 1, N-{4-[2-(4-hydrazinocarbonylmethylphenyl)ethyl]-1,3-thiazol-2-yl}acetamide], in the assay with STZ induced diabetic rat, the “number of onset eyes” value was 2/8, the “onset of cataract (conclusion in words)” value was “suppress the onset of cataract” and the “onset rate (Day 46)” value came to 25%. Besides, the “number of onset eyes (Day 20)” value in assay [1] (Day 20, oral, 0.5 wt %, 2 mL/kg once per day, vehicle group 8/12 eyes) is reported as 3/12 eyes. The “onset of cataract (conclusion in words)” value in assay [1] (galactose-fed rats, oral administration, 20 days) is “suppresses the onset of cataract”.
On to `CC(=O)Nc1nc(CCc2ccc(CCNC(=N)N)cc2)cs1` [test substance 2, N-(4-{2-[4-(2-{[amino(imino)methyl]amino}ethyl)phenyl]ethyl}-1,3-thiazol-2-yl)acetamide], for which, in the assay on STZ induced diabetic rat, the “number of onset eyes” value is reported as 2/10, the “onset of cataract (conclusion in words)” value is listed as “suppress the onset of cataract” and the “onset rate (Day 46)” value was 20%.
